Measured values reported in patent US20180360782A1, “METHOD OF MODULATING RIBONUCLEOTIDE REDUCTASE” (CASE WESTERN RESERVE UNIVERSITY, priority 2015, published 2018).
Square brackets hold non-standard residues; d marks the D form. Peptide text beside a SMILES is read from it. ξ: configuration not given here. ξY = NC(Cc1ccc(O)cc1)C(=O)O; Sar = CNCC(=O)O

system: select cancer cell lines; assay: Cellular IC50 of NSAAH library (Table 3); type: cell-based; conditions: not given
Method: (§1) Cell were maintained in standard tissue culture media (RPMI1640, +10% fetal bovine serum, plus antibiotic) and grown in a standard humidified 5% CO2 incubator at 37° C. Cells were regularly tested using the MycoAlert detection kit (Lonza Biologics) and shown to be mycoplasma-free. Initial compound screening was performed using both MDA-MB-23 land HCT-116 cell lines. For moderate throughput screening (up to 120 drugs per experiment), cells were seeded into 96 well plates and allowed to attach overnight. The following day media was removed and replaced with fresh compound containing media. Each compound was tested against both cell lines at 3 concentrations; 1 μM, 10 μM and 50 μM, in duplicate. Cells were incubated with compound containing media for three days in a standard 5% CO2 tissue culture incubator. Cell growth was assessed after 3 days using the DNA dye binding assay, as originally described by LaBarca and Paigen. Relative growth was independently calculated for each cell line, based on DNA content from corresponding cells grown in control media plus diluent (DMSO). Additional growth inhibition experiments utilized either the DNA binding assay or the Promega CellTiter 96® (MTT reduction) assay, with similar results. For detailed growth inhibition assays, cells (1500-2500 depending on the growth characteristics of the cell line) were seeded in standard 96 well tissue culture plates and allowed to attach overnight. The following day media was removed and replaced with drug containing media. Each dose group consisted of 5 replicate wells, and results are reported a Relative Growth, calculated as DNA or MTT reduction per well, divided by the signal from untreated cells, both harvested 3 days after drug administration.

Compound | IC50 | Cellular IC50
COc1ccc(Br)cc1C(=O)N/N=C/c1c(O)ccc2ccccc12 | > 1 µM | 
Oc1ccc2ccccc2c1/C=N/NCc1ccccc1 | > 10 µM | 
O=C(N/N=C/c1c[nH]c2ccc([N+](=O)[O-])cc12)c1ccccc1O |  | No cytotoxicity
O=C(N/N=C/c1c(O)ccc2ccccc12)c1ccc([N+](=O)[O-])c(Cl)c1 |  | No cytotoxicity
Cc1cccc2c(/C=N/NC(=O)c3ccccc3O)c[nH]c12 |  | No cytotoxicity
O=C(N/N=C/c1c[nH]c2ccc(O)cc12)c1ccccc1O | > 10 µM | 
Oc1ccc2ccccc2c1/C=N/Nc1ccc(Br)cc1 | > 10 µM | 
Oc1ccc2cc(-c3cn(-c4ccc5[nH]ccc5c4)nn3)ccc2c1 |  | No cytotoxicity
O=C(N/N=C/c1c(O)ccc2ccccc12)OCc1ccccc1 |  | No cytotoxicity
COc1cc(Br)ccc1C(=O)N/N=C/c1c(O)ccc2ccccc12 | > 10 µM | 
O=[N+]([O-])c1ccc(S(=O)(=O)N/N=C/c2c(O)ccc3ccccc23)cc1 |  | No cytotoxicity
CN(C)c1ccc(C(=O)N/N=C/c2c(O)ccc3ccccc23)cc1 | > 10 µM | 
Nc1ccc(C(=O)N/N=C/c2c(O)ccc3ccccc23)cc1Cl | > 10 µM | 

system: MDA-MB-231, HCT116, A549 and Panc1 cell lines; assay: Detailed growth inhibition studies, median effect dose; type: cell-based; conditions: Homo sapiens, 72 h, read-out: median effect dose (Dm), growth inhibitory activity
Method: Cell were maintained in standard tissue culture media (RPMI1640, +10% fetal bovine serum, plus antibiotic) and grown in a standard humidified 5% CO2 incubator at 37° C. […] For moderate throughput screening (up to 120 drugs per experiment), cells were seeded into 96 well plates and allowed to attach overnight. The following day media was removed and replaced with fresh compound containing media. Each compound was tested against both cell lines at 3 concentrations; 1 μM, 10 μM and 50 μM, in duplicate. Cells were incubated with compound containing media for three days in a standard 5% CO2 tissue culture incubator. Cell growth was assessed after 3 days using the DNA dye binding assay, as originally described by LaBarca and Paigen. Relative growth was independently calculated for each cell line, based on DNA content from corresponding cells grown in control media plus diluent (DMSO). […] The following day media was removed and replaced with drug containing media.
Over 190 compounds were screened for their ability to inhibit growth and/or induce cell death in established cancer cell lines.

Compound | IC50
OC(COc1ccc(OCC(O)CN2CCN(C3c4ccccc4-c4ccccc43)CC2)cc1)CN1CCN(C2c3ccccc3-c3ccccc32)CC1 (stereo not shown) [compound 2] | 1 to 10 µM

same assay, conditions: Homo sapiens, read-out: growth inhibition

Compound | inhibition at 10 µM
OC(COc1ccc(OCC(O)CN2CCN(C3c4ccccc4-c4ccccc43)CC2)cc1)CN1CCN(C2c3ccccc3-c3ccccc32)CC1 (stereo not shown) [compound 2] | ~100%

system: MDA-MB-231 and HCT-116 cell lines; assay: Growth inhibition screening assay (In Cell IC50); type: cell-based, human; conditions: 3 days with compound
Method: as §1

Compound | In Cell IC50 (μM)
CCOC(=O)C(NC(=O)CN[C@H]1CCCc2sccc21)C(=O)OCC | ne^b
CNCC(=O)N[C@@H](CCCNC(=N)N)C(=O)N[C@H](C(=O)NC(Cc1ccc(O)cc1)C(=O)N[C@H](C(=O)N[C@@H](Cc1cnc[nH]1)C(=O)O)C(C)C)C(C)C (stereo partly shown) [compound 9] (H-[Sar]RV[ξY]VH-OH) | non-toxic
CCCCCCCCCCCCCCNC(=O)[C@@H](N)CCN | ne
CCOC(=O)C[C@@H](CC(=O)NCCN[C@H](C)c1ccc(O)c(C(=O)OC)c1)OC(C)=O | ne^b
CCCCCCCCCCCCCCCC(=O)N[C@@H](CCCCN)C(=O)N[C@@H](CCCCN)C(=O)OC | ne
CC(NCCCCCO)c1cc(OCc2ccccc2)cc(OCc2ccccc2)c1 (stereo not shown) | non-toxic
CCC(C)(C)c1ccc(OCCCCNC(=O)c2cc(Oc3ccc([N+](=O)[O-])cc3)c3ccccc3c2O)c(C(C)(C)CC)c1 | ne^b
CCCOc1ccc(C(=O)OCCN(CC)CC)cc1NS(=O)(=O)/C=C/c1ccccc1 [compound 8] | ne^b

same assay, conditions: Homo sapiens, 72 h; 3 days with compound

Compound | IC50
CC(C)(NC(=O)CN1C(=O)c2ccccc2C1=O)C(=O)NCCCC[C@H](NC(=O)CC(O)(C(F)(F)F)C(F)(F)F)C(=O)O [compound 6] | 30 µM
OC(COc1ccc(OCC(O)CN2CCN(C3c4ccccc4-c4ccccc43)CC2)cc1)CN1CCN(C2c3ccccc3-c3ccccc32)CC1 (stereo not shown) [compound 2] | 3 to 8 µM
